US12594293B2, “Use of 6-thio-dG to treat therapy-resistant telomerasepositive pediatric brain tumors” (The Board of Regents of The University of Texas System, priority 2018, dated 2026)

What was measured:
HFF cells [1] = test: Immunofluorescence and telomere FISH (TIF) assay; type: cell-based, human
Procedure: (§1) Immunofluorescence and telomere FISH assay. Cells were fixed with 4% paraformaldehyde (PFA) for 15 minutes. Cells were then washed, permeabilized with 0.5% Triton-X-100 in PBS, blocked with 5% donkey serum and 0.3% Triton X-100 in TBS and incubated with primary antibodies against γH2A.X (1:500, rabbit), or cleaved caspase-3 (1:400, rabbit) (Cell Signaling); and/or TRF2 (1:200) (Mouse; NOVUS), as applicable, for overnight followed by TBST wash (×3) next day. Corresponding secondary antibodies were added (Alexa-Fluor 488- or 594-conjugated donkey anti-rabbit, or anti-mouse (1:500) (Jackson ImmunoResearch) for 1 hour and washed with TBS (×3) before mounting. For telomere-FISH, fixed and permeabilized cells were dehydrated with a graded ethanol concentration series, air-dried and covered with hybridization solution (70% formamide, 0.5% Blocking Reagent (Roche Diagnostics) diluted in 100 mM maleic acid and 150 mM sodium chloride, and 10 mM Tris (pH 7.5)) with 300 ng/mL PNA(CCCTAA)3-Cy3 (SEQ ID NO: 1) (Biosynthesis, USA), and denatured for 6 minutes at 84° C. followed by hybridization for at least two hours at room temperature. Cells were washed three times with 70% formamide and 10 mM Tris (pH 7.5) and three times with TBS. Finally, they were embedded with mounting media with DAPI (Vector Laboratories H1200).

MB004 cells [2] = test: Immunofluorescence and telomere FISH (TIF) assay; type: cell-based, human; settings: 3 μM 2 days, then 3 days continuous or discontinuous treatment
Procedure: as §1

HFF+hTERT cells [3] = test: Immunofluorescence and telomere FISH (TIF) assay; type: cell-based, human
Procedure: as §1

HFF cells [4] = test: Cell cycle analysis (PI flow cytometry); type: cell-based, human; settings: 3 μM, three days
Procedure: (§2) Cell cycle analysis. Following treatment with 6-thio-dG or DMSO, cells were collected in PBS, fixed with ice-cold 70% ethanol and were kept in −20° C. for at least an hour. Cells were then washed and stained with propidium iodide (PI) solution containing 25 μg/mL PI (Sigma), and 100 μg/mL Ribonuclease-A (Sigma) for 30 minutes in the dark. Flow cytometry was performed on BD FACS Canto II and cells were analyzed using FlowJo v.10 (FlowJo, USA) software.

HFF+hTERT cells [5] = test: Cell cycle analysis (PI flow cytometry); type: cell-based, human
Procedure: as §2

[6] = cited from earlier work
MB004 cells [7] = test: Sphere formation assay; type: cell-based, human; settings: 3 μM, day 7
Procedure: (§3) Cell growth and sphere formation assay. After dissociating primary neurospheres by TrypLE express (Gibco), single cells were seeded in respective growth media in 6-well plates and were incubated for one week at varying concentrations (0.5 to 10 μM) of 6-thio-dG or DMSO. Fresh culture media were added every three days. Viable cell numbers were determined by trypan blue exclusion method. For sphere formation assay, MB004 single cells were seeded in limited dilution (10 cells/well in 96-well plate) and treated with DMSO or 6-thio-dG. Sphere formation was monitored by microscopy.

U2OS cells = test: Cell growth and viability after drug removal; type: cell-based, human; settings: 3 mM 6-thio-dG for 3 days followed by 10-days post-drug removal (FIG. 10C)
[8] = tested on: ATM and ATR signaling pathways in HFF+hTERT cells; test: Western blot of ATR-T1989 and ATM-S1981 phosphorylation; type: cell-based, human; settings: 3 μM, day 1 to 3
Procedure: (§4) Western blot. Western blot was performed as described previously (22). Antibodies used were against ATMS1981P (R & D Systems); ATM (SIGMA); ATR-T1989P (GeneTex); and ATR, CHK1-S345P, CHK1, CHK2-T68P, CHK2, Cleaved Caspase-3, and β-actin (Cell Signaling). Bands were visualized using ECL with Azurec500 imaging system (Azure Biosystems). Band intensities were quantified using ImageJ software (Ver. 1.49u, NIH, USA).

[9] = tested on: ATM and ATR signaling pathways in HFF cells; test: as above; type: cell-based, human; settings: 3 μM, day 1 to 3
Procedure: as §4

MB004 cells [10] = test: Apoptosis, cleaved caspase-3; type: cell-based, human; settings: 3 μM for 4 or 7 days; data not shown
Procedure: as §1, with “Finally, they were embedded with mounting media with DAPI (Vector Laboratories H1200).” left out
(§5) Western blot. […] Band intensities were quantified using ImageJ software (Ver. 1.49u, NIH, USA).

CCHMC-DIPG-1 cells = test: Apoptosis, cleaved caspase-3; type: cell-based, human; settings: 3 μM for 4 or 7 days; data not shown
Procedure: as §1, with “Finally, they were embedded with mounting media with DAPI (Vector Laboratories H1200).” left out
as §5

MB004 cells [11] = test: Cell cycle analysis (PI flow cytometry); type: cell-based, human; settings: 3 μM for 3 days
Procedure: as §2, with “Following treatment with 6-thio-dG or DMSO, cells were collected in PBS, fixed with ice-cold 70% ethanol and were kept in −20° C. for at least an hour.” left out

HeLa cells = test: Cell cycle analysis (PI flow cytometry); type: cell-based, human
Procedure: as §2, with “Following treatment with 6-thio-dG or DMSO, cells were collected in PBS, fixed with ice-cold 70% ethanol and were kept in −20° C. for at least an hour.” left out

HFF + hTERT = test: Cell growth assay (viable cell count, trypan blue exclusion); type: cell-based, human; settings: Homo sapiens, 168 h; 6-thio-dG treatment for 7 days; HFF + hTERT
HeLa = test: as above; type: cell-based; settings: Homo sapiens, 168 h, 6-thio-dG treatment for 7 days
Procedure: as §3

SU-DIPG-VI = test: as above; type: cell-based; settings: Homo sapiens, 168 h, 6-thio-dG treatment for 7 days
Procedure: as §3

R0315-GBM = test: as above; type: cell-based; settings: Homo sapiens, 168 h, 6-thio-dG treatment for 7 days
Procedure: as §3

CCHMC-DIPG-1 = test: as above; type: cell-based; settings: Homo sapiens, 168 h, 6-thio-dG treatment for 7 days
Procedure: as §3

HFF+hTERT cells [12] = test: Apoptosis, cleaved caspase-3 (IF / immunoblot); type: cell-based, human; settings: 3 μM for 4 or 7 days
Procedure: as §1, §4

## Nc1nc2c(ncn2[C@H]2C[C@H](O)[C@@H](CO)O2)c(=S)[nH]1 [6-thio-dG, 6-thio-2′-deoxyguanosine]
HFF cells [1]; 3 μM, after 2 or 5 days treatment
  TIF formation (cells with TIFs): less than 3%
HFF cells [1]; 3 days after drug withdrawal
  TIFs after drug withdrawal: completely disappeared
MB004 cells [2]
  TIF formation: sustained TIF formation
HFF+hTERT cells [3]; 3 μM 2 days, then 3 days after drug withdrawal
  cells TIF-positive: ~31%
HFF+hTERT cells [3]; 3 μM, 5 days continuous treatment
  cells TIF-positive: ~34%
HFF+hTERT cells [3]; 3 μM, after two days
  number of cells with TIFs: ~25%
HFF+hTERT cells [3]; 3 μM, from day 1 to day 3
  number of TIFs per cell and number of cells with TIFs: markedly increased
HFF cells [4]
  G2/M arrest effect: negligible
HFF+hTERT cells [5]; 3 μM 3 days, then drug removed
  cell cycle profile after drug removal: partially reverted to that of the vehicle control
HFF+hTERT cells [5]; 3 μM, three days
  cell cycle progression: caused G2/M arrest
[6]; mice treated with 6-thio-dG, Mender et al.
  animal deaths or weight loss: no animal deaths or weight loss
[6]; mouse, in vivo
  toxic effects on hematologic counts, liver and kidney functions: did not cause any toxic effects
MB004 cells [7]
  sphere formation ability: total abolition of sphere formation ability
U2OS cells
  cell death / viability: predominantly did not die
[8]
  ATR-T1989 and ATM-S1981 phosphorylation: Both ATM and ATR signaling pathways were engaged
[9]
  ATR / ATM pathway activation: activation of the ATR pathway
MB004 cells [10]
  cleaved caspase-3 signal (apoptosis): increase in cleaved caspase-3 signal
CCHMC-DIPG-1 cells
  cleaved caspase-3 signal (apoptosis): increase in cleaved caspase-3 signal
MB004 cells [11]
  cell cycle populations: increase in sub-G1 and G2/M cell populations
HeLa cells; 3 μM 3 days, then drug removed
  effect on cell cycle progression after drug removal: persisted several days after drug withdrawal
HeLa cells; 3 μM, three days
  cell cycle progression: caused G2/M arrest
HeLa cells; continuous treatment, 3 μM
  cell cycle populations: sharp increase in G2/M, >4n and sub-G1 cell populations
HFF + hTERT
  IC50: 0.179 µM
HeLa
  IC50: 0.143 µM
SU-DIPG-VI
  IC50: 0.772 µM
R0315-GBM
  IC50: 1.25 µM
CCHMC-DIPG-1
  IC50: 0.655 µM
HFF+hTERT cells [12]
  apoptosis (cleaved caspase-3): did not show any evidence of apoptosis
